Data from patent US4481201A, “Pharmaceutical composition containing N,N^3 -di-(β-bromopropionyl)-N^1,N^2 -dispirotripiperazinium dichloride” (Vsesojuzny Nauchno-Issledovatelsky Khimoko-Farmasevtichesky …, priority 1981, dated 1984).
Entries after “also recorded” stand apart in the source; their conditions may differ. Like-named read-outs stand apart in the source and are kept apart here.

Tests used:
[1] = test system: sarcoma 180; assay: Growth of graft sarcoma 180 in mice; format: in vivo, noninbred white mice
Source text: (§1) The antitumor activity has been studied on white rats weighing 110-130 g, as well as on white noninbred and inbred mice weighing 17-21 g with ligated tumors. The treatment is started 5-7 days transplanting of solid tumors and the following day after the transplanting of leukotic strains. Use has been made of the following transplantable strains of the tumors:
(2) noninbred white mice: sarcoma 180, sarcoma AK, sarcoma 37, carcinoma HK;
(§2) The compounds of the general formula (I), wherein X represents Cl^- (compound 1), Br^- (compound 2) are well-soluble in an isotonic solution of sodium chloride and they are administered intraperitoneally. The doses of the compounds have been calculated in mg per kg of the animal bodyweight.

[2] = test system: Ienssen's sarcoma; assay: Growth of graft Ienssen sarcoma in rats; format: in vivo
Source text: as §1
(§3) (1) rats: Ienssen's sarcoma, sarcoma 45, sarcoma M-1, sarcoma 536;
as §2

[3] = test system: sarcoma M-1; assay: Growth of graft sarcoma M-1 in rats; format: in vivo; details: rats, 85 mg/kg per os, 6 injections, one experiment
Source text: as §1, §3, §2

[4] = Toxicity on single and repeated administration to mice; format: in vivo; details: for MTD / LD50: mouse, in vivo; for MTD: read-out: MTD; for Ik index of toxic effect cumulation: intraperitoneal administration; for LD50: read-out: DL50 (average lethal dose)
Procedure: (3) acute toxicity of the compounds upon a single and repeated administration to white noninbred mice places into standard cages with 8 animals in each.
In the investigation of toxic properties of the compounds according to the present invention there has been determined the absolutely lethal dose (DL95), average lethal dose (DL50) and MTD. For compounds 1 and 2 there were determined DL95 and DL50 on healthy white mice with the body mass of 18-21 g at a single and repeated (once a day, daily for 7 days) intraperitoneal administration.

[5] = Solubility; format: physicochemical
Procedure: as §2
To a mixture of 3 g of N^1,N^2 -dispirotripiperazinium dichloride, 1.5 g of lithium hydroxide, 1 ml of water and 10 ml of ether a solution of 5.2 g of β-bromopropionic acid chlorid in 5 ml of ether is added under vigorous stirring and at a temperature of 5° to 10° C. The reaction mass is stirred for 2 hours at the temperature of 15° C. The residue is filtered off, dissolved in 10 ml of water; the resulting aqueous solution is poured in 100 ml of methanol.

[6] = test system: sarcoma 536; assay: Growth of graft sarcoma 536 in rats; format: in vivo; set-up: key to tumor growth suppression class, Sarcoma 536: +++: tumor growth suppression by 95-100%; ++: tumor growth suppression by 80-95%; +: tumor growth suppression by 60-80%; tumor growth suppression by 30-60%; 0: no effect; details: for tumor growth suppression class, Sarcoma 536: rats
Source text: as §1, §3, §2

[7] = test system: leukemia La; assay: Life span of mice with transplantable leukemia La; format: in vivo, inbred mice; details: mice with transplantable leukemia La
Source text: as §1
(§4) (3) inbred mice: leukemia La, leukemia L1210 and P-388.
(§5) The activity of compounds relative to leukosis has been assessed by the life span (It) of treated animals as compared to the control ones. It --index of suppression of leukosis development is calculated by the formula: [formula]

[8] = test system: transplantable leukemia; assay: Activity relative to leukoses of inbred mice (overall); format: in vivo
Source text: (2) activity of the compounds relative to leukoses of inbred mice;
as §1, §4, §5

[9] = test system: leukemia L1210; assay: Life span of mice with transplantable leukemia L1210; format: in vivo, inbred mice; details: mice with transplantable leukemia L1210
Source text: as §1, §4, §5

[10] = test system: leukemia P-388; assay: Life span of mice with transplantable leukemia P-388; format: in vivo, inbred mice; details: mice with transplantable leukemia P-388
Source text: as §1, §4, §5

[11] = Withdrawal of radioactivity from the rats' organism; format: in vivo; set-up: concentration or dose not given beside the values; details: 24 hours after intravenous administration, C^14-labeled
Source text: (§6) In the case of administration of the preparation according to the present invention labeled with C^14, a higher level of radioactivity in blood is observed than in the case of prospidin labeled with C^14. A higher rate of accumulation of the preparation according to the present invention as compared to prospidin is observed in larynx, windpipe, bronchi, bone marrow, tumor and thyroid gland. The preparation according to the present invention labeled with C^14 is withdrawn from the organism within 24 hours after the intravenous administration mainly with urine, while C^14 --labeled prospidin is retained in the organism for a longer period.

[12] = Distribution of C^14-labeled preparation within organs and tissues of rats with sarcoma M-1; format: in vivo; details: rats with sarcoma M-1, intravenous
Source text: Furthermore, the particular distribution of the preparation according to the present invention within organs and tissues should also be noted.
as §6

[13] = test system: sarcoma 45; assay: Growth of graft sarcoma 45 in rats; format: in vivo; details: rats
Source text: as §1, §3, §2

[14] = mice, single intraperitoneal administration
[15] = ip, mice, single intraperitoneal administration
[16] = rats, per os, 145 mg/kg, 7 injections

Structure (SMILES): O=C(CCBr)N1CC[N+]2(CC1)CC[N+]1(CCN(C(=O)CCBr)CC1)CC2 [Compound 3]
- suppression of sarcoma 180 growth ([1]; mice, per os, at MTD (dose not given)): 35
- It, % tumor growth suppression index ([2]; rats, 83 mg/kg per os (MTD), 7 injections, one experiment): 50%
- Change in the animal body weight, test ([2]; rats, 83 mg/kg per os, 7 injections, one experiment): -7 g
- Change in the animal body weight, test [3]: +1 g
- MTD ([4]; po, repeated administration, suspension per os): 83 mg/kg
- solubility in water [5]: sparingly soluble

Structure (SMILES): CN(C)c1nc(NP(=O)(N2CC2)N2CC2)c2c(ncn2C)n1 [Phopurine, 2-dimethylamino-6-diethyleneimido-phosphamido-7-methylpurine, reference compound]
- effect on the growth of sarcoma 536 ([6]; dose not given): does not affect the growth
- tumor growth suppression class, Sarcoma 536 [6]: 0
- slowing of the growth of sarcoma 180 ([1]; dose not given): 36%
- tumor growth suppression class, Sarcoma 180 ([1]; mice): + (tumor growth suppression by 60-80%)
- It, % index of suppression of leukosis development [7]: 204%
- Life span [7]: 22.5 ± 3.4 days
- Ik index of toxic effect cumulation ([4]; mice): 12
- DL95 (absolutely lethal dose) [4, 14]: 430 mg/kg
- LD50 [4, 15]: 280 mg/kg
- MTD ([4]; ip, repeated intraperitoneal administration): 120 mg/kg

Structure (SMILES): OC(CCl)CN1CC[N+]2(CC1)CC[N+]1(CCN(CC(O)CCl)CC1)CC2 (stereo not drawn) [Prospidin, 3,12-diaza-6,9-diazaniumdispiro-[5,2,5,2]-hexadecane-3,12-bis-(3-chloro-2-hydroxypropyl)-dichloride, reference compound]
- effect on transplantable leukemia in mice [8]: does not affect the development of leukemiae; also recorded: does not provide any effect
- tumor growth suppression class, Sarcoma 536 [6]: ++ (tumor growth suppression by 80-95%)
- It, % index of suppression of leukosis development [9]: 0%
- Life span [9]: 8.1 ± 0.1 days
- tumor growth suppression class, Sarcoma 180 ([1]; mice): ++ (tumor growth suppression by 80-95%)
- It, % index of suppression of leukosis development [10]: 50%
- Life span [10]: 14.8 ± 0.3 days
- Ch/T chemotherapeutical index (ratio of MTD to minimum effective dose) ([2]; Ienssen sarcoma): 27
- Change in the bodyweight of animals, test [2, 16]: -9 g
- It, % [2, 16]: +30%
- Withdrawal of radioactivity, Feces [11]: 7.0%
- Withdrawal of radioactivity, Total [11]: 75.0%
- Withdrawal of radioactivity, Urina [11]: 68.0%
- It, % index of suppression of leukosis development [7]: 0%
- Life span [7]: 6.6 ± 0 days
- Ik index of toxic effect cumulation ([4]; mice): 58
- DL95 (absolutely lethal dose) ([4]; mice, repeated intraperitoneal administration (once a day, daily for 7 days)): 250 mg/kg
- DL50 (average lethal dose) [4, 14]: 1,000 mg/kg
- DL95 (absolutely lethal dose) [4, 14]: 1200 mg/kg
- LD50 [4, 15]: 1000 mg/kg
- Coefficient of differential accumulation, Blood ([12]; 15 min): 0.4
- Coefficient of differential accumulation, Bone marrow ([12]; 15 min): 0.8
- Coefficient of differential accumulation, Bronchi ([12]; 15 min): 2.16
- Coefficient of differential accumulation, Hypophysis ([12]; 15 min): 2.4
- Coefficient of differential accumulation, Kidneys ([12]; 15 min): 3.34
- Coefficient of differential accumulation, Larynx ([12]; 15 min): 0.42
- Coefficient of differential accumulation, Liver ([12]; 15 min): 1.43
- Coefficient of differential accumulation, Lungs ([12]; 15 min): 1.54
- Coefficient of differential accumulation, Lymphonodes ([12]; 15 min): 0.57
- Coefficient of differential accumulation, Spleen ([12]; 15 min): 0.43
- Coefficient of differential accumulation, Thymus gland ([12]; 15 min): 0.16
- Coefficient of differential accumulation, Tumor ([12]; 15 min): 0.65
- Coefficient of differential accumulation, Tyroid gland ([12]; 15 min): 1.2
- Coefficient of differential accumulation, Windpipe ([12]; 15 min): 0.38
- Coefficient of differential accumulation, Blood ([12]; 30 min): 0.1
- Coefficient of differential accumulation, Bone marrow ([12]; 30 min): 0.6
- Coefficient of differential accumulation, Bronchi ([12]; 30 min): 0.82
- Coefficient of differential accumulation, Hypophysis ([12]; 30 min): 1.65
- Coefficient of differential accumulation, Kidneys ([12]; 30 min): 0.67
- Coefficient of differential accumulation, Larynx ([12]; 30 min): 0.32
- Coefficient of differential accumulation, Liver ([12]; 30 min): 0.75
- Coefficient of differential accumulation, Lungs ([12]; 30 min): 0.45
- Coefficient of differential accumulation, Lymphonodes ([12]; 30 min): 0.48
- Coefficient of differential accumulation, Spleen ([12]; 30 min): 0.21
- Coefficient of differential accumulation, Thymus gland ([12]; 30 min): 0.06
- Coefficient of differential accumulation, Tumor ([12]; 30 min): 0.37
- Coefficient of differential accumulation, Tyroid gland ([12]; 30 min): 1.06
- Coefficient of differential accumulation, Windpipe ([12]; 30 min): 0.21
- Coefficient of differential accumulation, Blood ([12]; 60 min): 0.07
- Coefficient of differential accumulation, Bone marrow ([12]; 60 min): 0.52
- Coefficient of differential accumulation, Bronchi ([12]; 60 min): 0.5
- Coefficient of differential accumulation, Hypophysis ([12]; 60 min): 1.47
- Coefficient of differential accumulation, Kidneys ([12]; 60 min): 0.56
- Coefficient of differential accumulation, Larynx ([12]; 60 min): 0.14
- Coefficient of differential accumulation, Liver ([12]; 60 min): 0.67
- Coefficient of differential accumulation, Lungs ([12]; 60 min): 0.2
- Coefficient of differential accumulation, Lymphonodes ([12]; 60 min): 0.14
- Coefficient of differential accumulation, Spleen ([12]; 60 min): 0.11
- Coefficient of differential accumulation, Thymus gland ([12]; 60 min): 0.05
- Coefficient of differential accumulation, Tumor ([12]; 60 min): 0.3
- Coefficient of differential accumulation, Tyroid gland ([12]; 60 min): 0.75
- Coefficient of differential accumulation, Windpipe ([12]; 60 min): 0.1
- Coefficient of differential accumulation, Blood ([12]; 24 hours): 0.01
- Coefficient of differential accumulation, Bone marrow ([12]; 24 hours): 0.18
- Coefficient of differential accumulation, Bronchi ([12]; 24 hours): 0.25
- Coefficient of differential accumulation, Hypophysis ([12]; 24 hours): 0.55
- Coefficient of differential accumulation, Kidneys ([12]; 24 hours): 0.15
- Coefficient of differential accumulation, Larynx ([12]; 24 hours): 0.05
- Coefficient of differential accumulation, Liver ([12]; 24 hours): 0.13
- Coefficient of differential accumulation, Lungs ([12]; 24 hours): 0.06
- Coefficient of differential accumulation, Lymphonodes ([12]; 24 hours): 0.04
- Coefficient of differential accumulation, Spleen ([12]; 24 hours): 0.06
- Coefficient of differential accumulation, Thymus gland ([12]; 24 hours): 0.02
- Coefficient of differential accumulation, Tumor ([12]; 24 hours): 0.07
- Coefficient of differential accumulation, Tyroid gland ([12]; 24 hours): 0.22
- Coefficient of differential accumulation, Windpipe ([12]; 24 hours): 0.07
- tumor growth suppression class, Sarcoma 45 [13]: ++ (tumor growth suppression by 80-95%)
